Experimental data: patent US20210024981A1, “COMPOSITION FOR DETECTING DSRNAS, COMPRISING MEROCYANINE COMPOUND AND ISOMER THEREOF, AND METHOD FOR PROVIDING INFORMATION FOR DIAGNOSING CANCER, BY USING DSRNA EXPRESSION ANALYSIS” (KOREA ADVANCED INSTITUTE OF SCIENCE AND TECHNOLOGY, priority 2018, published 2021)
Entries after “also recorded” stand apart in the source; their conditions may differ.

Experiments:
[1] = system: HCT116 colorectal cancer cells; test: dsRNA absorbance change rate after 5-AZA-CdR treatment; type: cell-based; conditions: 5-AZA-CdR 500 nM 24 hours, days 0, 1, 3 and 5
Procedure: (§1) To compare the expression level of dsRNA between cancer cells and normal cells, total RNA was extracted by treating TRIsure reagents (Bioline) to 3 types of cancer cell lines (HeLa cervical cancer cells, HCT116 colorectal cancer cells and A549 lung cancer cells) and 2 types of normal cell lines (CCD-986sk cells and RPE-1 cells), respectively. The extracted total RNA (30 μg) was treated with RNase T1 (Worthington Inc.) in a volume of 1/10, and incubated at 37° C. for 30 minutes to remove ssRNA and rRNA. Then, dsRNA was purified using a phenol extraction method. The final concentration of the purified dsRNA was adjusted to 350 μM using tertiary distilled water, to which the spiropyran solution (12 μM, dissolved in tertiary distilled water) was added. After irradiating UV to the mixture, the rate of change in absorbance at 512 nm was measured for 2 minutes. The rate of change in absorbance was calculated in comparison with the control group using tertiary distilled water instead of dsRNA.
(§2) HCT116 colorectal cancer cells and HeLa cervical cancer cells were treated with 5-AZA-CdR (500 nM), respectively, and cultured for 24 hours. The medium was replaced with fresh medium and the cells were collected on days 0, 1, 3 and 5 to isolate dsRNA. The rate of change in absorbance of dsRNA in cancer cells was measured in the same manner as described in Experimental Example 9.

[2] = system: HeLa cervical cancer cells; test: as above; type: cell-based; conditions: 5-AZA-CdR 500 nM 24 hours, day 5 vs day 0
Procedure: as §1, §2

A375 melanoma cells [3] = test: as above; type: cell-based; conditions: 5-AZA-CdR 500 nM, days 0-7
Procedure: as §1
(§3) In addition, PANC-1 pancreatic cancer cells, MCF-7 breast cancer cells, A549 lung cancer cells and A375 melanoma cells were treated with 5-AZA-CdR (500 nM), respectively, and cultured for 24 hours. The medium was replaced with fresh medium and the cells were collected on days 0, 1, 3, 5 and 7 to isolate dsRNA. The rate of change in absorbance of dsRNA in cancer cells was measured in the same manner as described in Example 1.

A549 lung cancer cells [4] = test: as above; type: cell-based; conditions: 5-AZA-CdR 500 nM, days 0-7
Procedure: as §1, §3

[5] = system: MCF-7 breast cancer cells; test: as above; type: cell-based; conditions: 5-AZA-CdR 500 nM, day 7 compared to day 0
Procedure: as §1, §3

[6] = system: PANC-1 pancreatic cancer cells; test: as above; type: cell-based; conditions: 5-AZA-CdR 500 nM, day 7 compared to day 0
Procedure: as §1, §3

A375 melanoma cells [7] = test: Degree of apoptosis by MTT assay; type: cell-based; conditions: 5-AZA-CdR 500 nM
Procedure: (§4) HCT116 colorectal cancer cells, PANC-1 pancreatic cancer cells, MCF-7 breast cancer cells, A549 lung cancer cells and A375 melanoma cells were treated with 5-AZA-CdR in the same manner as described in Experimental Example <10-1>, and the degree of apoptosis was measured by MTT assay.

A549 lung cancer cells [8] = test: Degree of apoptosis by MTT assay; type: cell-based; conditions: 5-AZA-CdR 500 nM
Procedure: as §4

[9] = system: HCT116 colorectal cancer cells; test: Degree of apoptosis by MTT assay; type: cell-based; conditions: 5-AZA-CdR 500 nM
Procedure: as §4

[10] = system: MCF-7 breast cancer cells; test: Degree of apoptosis by MTT assay; type: cell-based; conditions: 5-AZA-CdR 500 nM
Procedure: as §4

[11] = system: PANC-1 pancreatic cancer cells; test: Degree of apoptosis by MTT assay; type: cell-based; conditions: 5-AZA-CdR 500 nM
Procedure: as §4

[12] = system: HCT116 colorectal cancer cells; test: Apoptosis observed under a microscope; type: cell-based; conditions: 5-AZA-CdR 500 nM, day 5
[13] = system: HeLa cervical cancer cells; test: Apoptosis observed under a microscope; type: cell-based; conditions: 5-AZA-CdR 500 nM, day 5
[14] = system: ERV (THE1B, MTL2B4, MLT1C49 and MER21C) in HCT116 colorectal cancer cells; test: RT-PCR (qPCR) to confirm ERV expression; type: cell-based; conditions: 5-AZA-CdR 500 nM
Procedure: According to a recent study, 5-AZA-CdR has been reported to promote apoptosis by increasing untranslated RNA called ERV (endogenous retroviral element), the dsRNA. Thus, whether the expression of ERV ([…], MTL2B4, MLT1C49 and MER21C genes) was increased by 5-AZA-CdR treatment was investigated.
Total RNA was isolated from the HCT116 colorectal cancer cells treated with 5-AZA-CdR in the same manner as described in Experimental Example <10-1>, to which DNase I was treated, and then cDNA was synthesized using RevertAid reverse transcriptase (Thermo Fisher Scientific). Using the synthesized cDNA as a template, qPCR was performed with the primers in Table 1 below.

[15] = system: dsRNA (20 bp poly GC and poly AU); test: Binding of spiropyran (SP) or merocyanine (MC) and dsRNA, UV-Vis spectrometer; conditions: 12 μM solution, 20 bp poly GC and poly AU added, MC after 254 nm UV for 5 minutes
Procedure: The interaction of spiropyran (SP) or merocyanine (MC) with dsRNA was confirmed using a UV-Vis spectrometer. The spiropyran produced in Example 1 was prepared as a spiropyran solution (12 μM), and dsRNA was prepared by ordering 20 bp poly GC and poly AU from Bioneer Co., Ltd., respectively. After adding 200 μM of poly GC and poly AU to the spiropyran solution, spectral results were obtained using a UV-Vis spectrometer. The spiropyran produced in Example 1 was prepared as a spiropyran solution (12 μM), and dsRNA was prepared by ordering 20 bp poly GC and poly AU from Bioneer Co., Ltd., respectively. After irradiating 254 nm UV to the spiropyran solution for 5 minutes, poly GC and poly AU were added, respectively. Then, spectral results were obtained using a UV-Vis spectrometer.

poly AU and poly GC = test: Effect of dsRNA on reversibility of SP and MC; type: physicochemical; conditions: 200 μM poly AU or poly GC in sodium ion buffer; UV and 420 nm light alternately, 5 cycles at 1 minute intervals
Procedure: The SP and MC in the isomer relationship can be converted reversibly to each other by irradiating UV or visible light. To confirm the effect of dsRNA on the reversibility of SP-MC, SP and 200 μM poly AU and poly GC were added to sodium ion buffer, respectively, and absorbance was measured by alternately irradiating the mixture with UV and 420 nm […] light in 5 cycles at 1 minute intervals. At this time, water was used instead of RNA as the control.

Row | binding to dsRNA (change in UV-Vis absorbance spectrum) [15] | binding to dsRNA (change in UV-Vis absorbance spectrum) ([15]; listed as spiropyran) | Compound | rate of change in absorbance at 512 nm (dsRNA expression) [1] | rate of change in absorbance at 512 nm (dsRNA expression) [2] | dsRNA expression (rate of change in absorbance) (A375 melanoma cells [3]) | dsRNA expression (rate of change in absorbance) (A549 lung cancer cells [4]) | dsRNA expression (rate of change in absorbance) [5] | dsRNA expression (rate of change in absorbance) [6] | growth compared to untreated control (A375 melanoma cells [7]) | growth decreased compared to untreated control (A549 lung cancer cells [8]) | growth reduced compared to untreated control [9] | growth decreased compared to untreated control [10] | growth decreased compared to untreated control [11] | apoptosis [12] | apoptosis [13] | expression level of MER21C, increase compared to day 0 ([14]; day 5) | expression levels of THE1B, MTL2B4, MLT1C49 and MER21C ([14]; days 0 and 1) | expression levels of THE1B, MTL2B4, MLT1C49 and MER21C ([14]; from day 3) | reversibility of SP-MC (poly AU and poly GC)
1 |  |  | Nc1ncn([C@H]2C[C@H](O)[C@@H](CO)O2)c(=O)n1 [Example 5-AZA-CdR, 5-aza-2′-deoxycytidine] | increased from day 3; also recorded: gradually increased with time | almost unchanged; also recorded: almost similar to that of day 0 | no change; also recorded: little change | no change; also recorded: little change | slightly increased; also recorded: slight increase | slightly increased; also recorded: slight increase | not reduced | about 10% | about 40% | about 20% | about 20% | apoptosis induced by 5-AZA-CdR was observed | apoptosis was not observed | 100 times | almost unchanged | increased; also recorded: began to increase from day 3 | 
2 | did not bind to dsRNA | not combined with dsRNA | CC1(C)c2ccccc2N(CCC[N+](C)(C)C)C12C=Cc1cc([N+](=O)[O-])ccc1O2 (stereo not shown) [SP, 1′-(3″-trimethylammoniopropyl)-3′,3′-dimethyl-6-nitrospiro[(2H)-1-benzopyran-2,2′-indoline]iodide] |  |  |  |  |  |  |  |  |  |  |  |  |  |  |  |  | maintained independently from the presence or absence of dsRNA
